Experiment [1] deals with T1, Phosphorylase b kinase gamma catalytic chain, liver/testis isoform (Homo sapiens) (UniProt P15735).
T1 sequence (whole entry): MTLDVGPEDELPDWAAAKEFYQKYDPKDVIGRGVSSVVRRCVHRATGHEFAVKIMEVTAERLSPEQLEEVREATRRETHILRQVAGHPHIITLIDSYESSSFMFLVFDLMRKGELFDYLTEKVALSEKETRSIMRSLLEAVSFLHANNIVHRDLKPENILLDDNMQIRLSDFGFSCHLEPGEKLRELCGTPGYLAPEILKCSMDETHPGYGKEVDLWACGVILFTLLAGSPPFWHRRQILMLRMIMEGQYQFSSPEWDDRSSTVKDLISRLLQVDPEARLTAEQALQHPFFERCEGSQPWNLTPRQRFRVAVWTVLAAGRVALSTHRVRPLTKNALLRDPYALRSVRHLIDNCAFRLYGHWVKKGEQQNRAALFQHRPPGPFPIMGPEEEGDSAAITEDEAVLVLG
The experiment in a line: Selectivity interaction (ProQinase) EUB0000171b PHKG2.

Experiment [2] deals with MAP/microtubule affinity-regulating kinase 3 (Homo sapiens) (UniProt P27448). The conditions noted are these: at 10 µM.
In experiment [3] the target is Mitogen-activated protein kinase kinase kinase 10 (Homo sapiens) (UniProt Q02779). The conditions noted are these: at 10 µM.
For experiment [4], the target named is Aurora kinase B (Homo sapiens, UniProt Q96GD4). The experiment in a line: Selectivity interaction (KinomeScan (DiscoverX)) EUB0000655a AURKB. To be noted: at 10 µM.
The target in experiment [5] is T2, Serine/threonine-protein kinase Nek11 (Homo sapiens) (UniProt Q8NG66).
T2 sequence (whole entry): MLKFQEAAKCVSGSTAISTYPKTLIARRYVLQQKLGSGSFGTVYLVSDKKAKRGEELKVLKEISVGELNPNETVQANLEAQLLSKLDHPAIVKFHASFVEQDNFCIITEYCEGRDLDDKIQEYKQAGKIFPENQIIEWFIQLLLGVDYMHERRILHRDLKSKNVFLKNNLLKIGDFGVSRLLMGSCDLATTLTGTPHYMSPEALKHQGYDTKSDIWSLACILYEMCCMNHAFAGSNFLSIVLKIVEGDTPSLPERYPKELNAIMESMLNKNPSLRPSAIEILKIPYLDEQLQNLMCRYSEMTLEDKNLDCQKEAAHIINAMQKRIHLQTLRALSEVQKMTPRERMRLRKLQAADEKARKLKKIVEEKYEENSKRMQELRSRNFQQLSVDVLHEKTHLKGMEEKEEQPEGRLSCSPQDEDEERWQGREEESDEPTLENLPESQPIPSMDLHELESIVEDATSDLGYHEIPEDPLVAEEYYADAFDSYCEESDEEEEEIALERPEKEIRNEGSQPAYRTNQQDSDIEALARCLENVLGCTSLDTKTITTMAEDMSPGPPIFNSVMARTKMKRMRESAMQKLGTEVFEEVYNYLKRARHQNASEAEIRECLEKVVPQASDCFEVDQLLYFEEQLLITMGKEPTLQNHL
The experiment in a line: Selectivity interaction (KinomeScan (DiscoverX)) EUB0000045b NEK11.

Experiment [6] addresses Wee1-like protein kinase (Homo sapiens) (UniProt P30291). Kind of experiment: Selectivity interaction (KinomeScan (DiscoverX)) EUB0000666a WEE1. To be noted: at 10 µM.
Experiment [7] has as its target Rho-associated protein kinase 2 (Homo sapiens, UniProt O75116). Kind of experiment: Selectivity interaction (SelectScreen profiling (Invitrogen)) EUB0000607a ROCK2. To be noted: at 2 µM.
The target of experiment [8] is T3, MAP/microtubule affinity-regulating kinase 4 (Homo sapiens) (UniProt Q96L34).
T3 sequence (whole entry): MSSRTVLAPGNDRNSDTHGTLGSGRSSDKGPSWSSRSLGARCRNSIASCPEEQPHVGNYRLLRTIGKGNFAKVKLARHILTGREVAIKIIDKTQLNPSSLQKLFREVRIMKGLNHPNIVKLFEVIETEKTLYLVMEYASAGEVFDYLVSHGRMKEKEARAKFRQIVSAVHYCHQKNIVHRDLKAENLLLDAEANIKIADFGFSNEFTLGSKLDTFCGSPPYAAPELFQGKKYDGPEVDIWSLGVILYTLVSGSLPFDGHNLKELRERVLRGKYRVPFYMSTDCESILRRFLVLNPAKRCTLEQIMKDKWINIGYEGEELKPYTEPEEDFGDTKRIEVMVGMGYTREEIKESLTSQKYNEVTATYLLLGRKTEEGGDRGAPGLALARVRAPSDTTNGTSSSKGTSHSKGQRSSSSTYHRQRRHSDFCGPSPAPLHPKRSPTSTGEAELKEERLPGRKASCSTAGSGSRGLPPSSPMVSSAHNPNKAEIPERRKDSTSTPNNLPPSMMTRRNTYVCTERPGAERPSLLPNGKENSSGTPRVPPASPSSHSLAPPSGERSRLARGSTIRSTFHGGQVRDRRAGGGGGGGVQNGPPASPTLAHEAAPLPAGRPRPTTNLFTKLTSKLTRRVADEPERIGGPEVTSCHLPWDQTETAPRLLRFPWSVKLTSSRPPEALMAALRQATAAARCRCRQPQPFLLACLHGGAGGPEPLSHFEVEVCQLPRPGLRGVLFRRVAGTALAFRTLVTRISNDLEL
The experiment in a line: Selectivity interaction (Kinase panel (Invitrogen)) EUB0000639a MARK4. To be noted: at 200 nM.

Experiment [9] concerns the target Mitogen-activated protein kinase 9 (Homo sapiens, UniProt P45984). Kind of experiment: Selectivity interaction (Kinase panel (Invitrogen)) EUB0000639a MAPK9. The conditions noted are these: at 200 nM.

Chain of Aurora kinase B (Q96GD4 whole entry): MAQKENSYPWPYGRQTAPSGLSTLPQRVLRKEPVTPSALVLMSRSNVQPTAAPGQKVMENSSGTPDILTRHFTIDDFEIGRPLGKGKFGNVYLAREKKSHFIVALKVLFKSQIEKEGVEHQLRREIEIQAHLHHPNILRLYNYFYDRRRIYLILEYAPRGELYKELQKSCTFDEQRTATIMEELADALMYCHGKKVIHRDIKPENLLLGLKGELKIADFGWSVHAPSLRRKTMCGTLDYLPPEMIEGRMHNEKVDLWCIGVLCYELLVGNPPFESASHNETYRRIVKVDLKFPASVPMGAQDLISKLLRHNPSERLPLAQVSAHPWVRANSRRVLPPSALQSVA
Chain of Wee1-like protein kinase (Homo sapiens) (P30291 whole entry, looked up): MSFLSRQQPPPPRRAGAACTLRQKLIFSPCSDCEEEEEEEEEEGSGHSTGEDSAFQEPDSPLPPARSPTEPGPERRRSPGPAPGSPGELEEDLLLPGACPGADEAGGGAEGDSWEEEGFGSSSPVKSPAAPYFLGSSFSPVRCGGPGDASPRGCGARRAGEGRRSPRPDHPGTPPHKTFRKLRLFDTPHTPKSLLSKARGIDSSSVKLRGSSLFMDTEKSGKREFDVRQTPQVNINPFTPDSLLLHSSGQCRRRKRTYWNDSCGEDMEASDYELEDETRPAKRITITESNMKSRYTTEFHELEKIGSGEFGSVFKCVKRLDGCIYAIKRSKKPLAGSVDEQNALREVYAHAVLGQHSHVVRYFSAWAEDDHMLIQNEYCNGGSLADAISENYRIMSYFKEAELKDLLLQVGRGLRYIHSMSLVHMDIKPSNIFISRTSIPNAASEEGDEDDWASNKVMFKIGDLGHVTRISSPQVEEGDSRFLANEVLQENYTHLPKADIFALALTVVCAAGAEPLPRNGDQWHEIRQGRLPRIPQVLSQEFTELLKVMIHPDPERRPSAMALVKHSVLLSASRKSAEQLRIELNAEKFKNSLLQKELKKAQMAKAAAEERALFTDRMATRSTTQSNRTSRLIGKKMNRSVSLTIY
Chain of Mitogen-activated protein kinase 9 (P45984 whole entry, looked up): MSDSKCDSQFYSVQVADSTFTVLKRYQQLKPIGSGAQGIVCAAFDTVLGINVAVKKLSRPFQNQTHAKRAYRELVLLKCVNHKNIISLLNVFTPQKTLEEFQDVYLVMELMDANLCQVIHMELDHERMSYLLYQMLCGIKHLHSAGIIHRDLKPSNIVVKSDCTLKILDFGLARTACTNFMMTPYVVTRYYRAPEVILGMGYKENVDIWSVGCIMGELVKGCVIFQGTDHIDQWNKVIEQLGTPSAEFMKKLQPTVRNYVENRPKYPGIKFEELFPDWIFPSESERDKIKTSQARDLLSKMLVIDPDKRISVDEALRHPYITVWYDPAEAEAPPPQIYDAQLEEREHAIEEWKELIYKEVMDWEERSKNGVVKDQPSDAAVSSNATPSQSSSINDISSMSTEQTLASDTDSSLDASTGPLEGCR
Chain of Mitogen-activated protein kinase kinase kinase 10 (Homo sapiens) (Q02779 whole entry, looked up): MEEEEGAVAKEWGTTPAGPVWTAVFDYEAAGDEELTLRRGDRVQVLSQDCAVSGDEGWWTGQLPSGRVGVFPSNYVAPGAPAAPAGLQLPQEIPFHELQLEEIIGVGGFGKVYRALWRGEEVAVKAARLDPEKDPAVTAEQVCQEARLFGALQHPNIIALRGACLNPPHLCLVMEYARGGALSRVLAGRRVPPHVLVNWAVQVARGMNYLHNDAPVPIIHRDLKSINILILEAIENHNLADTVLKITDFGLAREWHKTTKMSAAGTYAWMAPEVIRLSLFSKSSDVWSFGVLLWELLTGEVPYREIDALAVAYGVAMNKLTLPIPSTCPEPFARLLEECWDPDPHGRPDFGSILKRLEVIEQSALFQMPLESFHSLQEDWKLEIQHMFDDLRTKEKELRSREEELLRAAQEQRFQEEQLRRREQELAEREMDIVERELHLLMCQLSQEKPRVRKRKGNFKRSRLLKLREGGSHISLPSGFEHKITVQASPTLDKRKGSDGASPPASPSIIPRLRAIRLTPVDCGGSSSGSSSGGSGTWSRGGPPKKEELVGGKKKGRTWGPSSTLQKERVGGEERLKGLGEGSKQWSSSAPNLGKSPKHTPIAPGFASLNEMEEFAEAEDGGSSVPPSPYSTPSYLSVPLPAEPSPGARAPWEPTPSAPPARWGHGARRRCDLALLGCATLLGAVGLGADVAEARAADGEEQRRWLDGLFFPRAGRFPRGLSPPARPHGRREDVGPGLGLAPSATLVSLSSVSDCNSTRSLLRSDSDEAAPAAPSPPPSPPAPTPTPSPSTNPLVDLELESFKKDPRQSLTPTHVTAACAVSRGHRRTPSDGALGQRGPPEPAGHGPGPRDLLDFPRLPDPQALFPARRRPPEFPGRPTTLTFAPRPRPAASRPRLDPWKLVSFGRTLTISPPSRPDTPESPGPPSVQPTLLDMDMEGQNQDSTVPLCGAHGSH
Chain of Rho-associated protein kinase 2 (O75116 whole entry, looked up): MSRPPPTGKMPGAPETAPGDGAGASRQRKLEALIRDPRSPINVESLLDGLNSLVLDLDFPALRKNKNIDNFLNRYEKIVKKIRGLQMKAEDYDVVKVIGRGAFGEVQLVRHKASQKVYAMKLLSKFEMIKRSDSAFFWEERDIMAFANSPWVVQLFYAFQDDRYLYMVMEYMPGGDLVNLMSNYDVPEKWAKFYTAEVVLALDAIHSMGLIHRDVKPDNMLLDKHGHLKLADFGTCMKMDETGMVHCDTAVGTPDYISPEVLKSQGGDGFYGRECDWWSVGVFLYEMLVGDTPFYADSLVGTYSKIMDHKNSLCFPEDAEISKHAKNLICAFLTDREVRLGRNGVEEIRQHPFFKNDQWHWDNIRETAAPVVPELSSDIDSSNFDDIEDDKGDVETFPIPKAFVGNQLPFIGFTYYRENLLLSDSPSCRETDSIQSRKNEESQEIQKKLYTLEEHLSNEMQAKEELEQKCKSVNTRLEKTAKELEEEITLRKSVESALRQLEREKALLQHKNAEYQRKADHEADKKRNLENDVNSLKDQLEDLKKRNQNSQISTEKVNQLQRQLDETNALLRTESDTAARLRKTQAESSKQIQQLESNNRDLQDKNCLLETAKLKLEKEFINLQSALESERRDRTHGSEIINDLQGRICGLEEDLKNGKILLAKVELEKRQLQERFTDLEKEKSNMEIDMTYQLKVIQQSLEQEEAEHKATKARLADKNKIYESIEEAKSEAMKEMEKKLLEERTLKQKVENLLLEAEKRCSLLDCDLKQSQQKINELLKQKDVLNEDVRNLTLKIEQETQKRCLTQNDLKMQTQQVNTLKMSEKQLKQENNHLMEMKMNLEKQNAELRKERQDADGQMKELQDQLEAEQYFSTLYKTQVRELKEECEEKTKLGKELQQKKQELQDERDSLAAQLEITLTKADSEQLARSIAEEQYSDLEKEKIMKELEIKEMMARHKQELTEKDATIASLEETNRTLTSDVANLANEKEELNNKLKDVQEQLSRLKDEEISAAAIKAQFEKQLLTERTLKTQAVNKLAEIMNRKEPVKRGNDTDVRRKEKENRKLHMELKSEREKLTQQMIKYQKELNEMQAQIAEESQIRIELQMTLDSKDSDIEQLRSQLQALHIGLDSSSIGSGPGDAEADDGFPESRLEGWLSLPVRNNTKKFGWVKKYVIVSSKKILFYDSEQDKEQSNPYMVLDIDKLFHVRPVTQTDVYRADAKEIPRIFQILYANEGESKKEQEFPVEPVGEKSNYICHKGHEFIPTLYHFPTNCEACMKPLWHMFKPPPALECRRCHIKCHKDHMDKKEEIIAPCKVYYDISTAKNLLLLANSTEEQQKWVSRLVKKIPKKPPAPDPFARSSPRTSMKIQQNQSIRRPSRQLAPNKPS
Chain of MAP/microtubule affinity-regulating kinase 3 (Homo sapiens) (P27448 whole entry, looked up): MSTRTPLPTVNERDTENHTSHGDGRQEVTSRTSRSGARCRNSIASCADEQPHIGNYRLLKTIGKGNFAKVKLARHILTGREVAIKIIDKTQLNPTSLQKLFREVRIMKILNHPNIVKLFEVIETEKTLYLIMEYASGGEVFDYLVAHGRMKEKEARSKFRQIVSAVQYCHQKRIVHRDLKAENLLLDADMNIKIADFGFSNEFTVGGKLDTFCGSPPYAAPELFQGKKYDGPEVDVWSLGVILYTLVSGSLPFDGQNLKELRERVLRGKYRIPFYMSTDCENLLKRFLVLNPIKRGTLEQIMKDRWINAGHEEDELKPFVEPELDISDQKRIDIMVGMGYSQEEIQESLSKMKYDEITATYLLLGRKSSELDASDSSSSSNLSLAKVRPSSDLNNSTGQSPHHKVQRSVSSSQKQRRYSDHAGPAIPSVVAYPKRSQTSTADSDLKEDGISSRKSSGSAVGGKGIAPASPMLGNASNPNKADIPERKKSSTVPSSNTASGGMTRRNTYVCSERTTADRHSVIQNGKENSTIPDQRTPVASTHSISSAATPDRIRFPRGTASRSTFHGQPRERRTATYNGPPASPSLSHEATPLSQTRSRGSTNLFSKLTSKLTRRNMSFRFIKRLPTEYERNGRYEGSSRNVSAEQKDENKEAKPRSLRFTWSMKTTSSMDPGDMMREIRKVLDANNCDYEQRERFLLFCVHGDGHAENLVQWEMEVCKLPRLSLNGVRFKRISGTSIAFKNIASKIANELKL

`C=CC(=O)Nc1cccc(C(=O)Nc2ccc(Nc3cc(-c4[nH]c(SC)nc4C)ccn3)cc2)c1`: the % of control in experiment [1] (at 1 µM) was determined as 94%; in experiment [1] (at 5 µM), 96%. Turning to `CCN(CC)CCCCNc1ncc2cc(-c3cc(OC)cc(OC)c3)c(NC(=O)NC(C)(C)C)nc2n1`, the % of control in experiment [2] and in experiment [3] was 100% each time. In experiment [4], `CN(C)CCOc1ccc(-c2nc(-c3ccncc3)c(-c3ccc4c(c3)CC/C4=N\O)[nH]2)cc1` yielded a % of control of 100%. Take `C=CC(=O)Nc1cc(-n2c(=O)ccc3cnc4ccc(-c5ccc(NS(C)(=O)=O)cc5)cc4c32)ccc1C`: the % of control in [5] (at 1 µM) and in experiment [5] (at 10 µM) was 100% throughout. The compound `O=C(NOC[C@H](O)CO)c1ccc(F)c(F)c1Nc1ccc(I)cc1F` yielded a % of control in [6] of 67%. Compound `CNC(=O)Nc1ccc(-c2nc(N3CC4CCC(C3)O4)c3cnn(C4CCC5(CC4)OCCO5)c3n2)cc1` yielded a % of inhibition in experiment [7] of 5%.

Consider `CC[C@@H]1[C@H](F)C(=O)N[C@@H]1COc1nccc2cc(C(N)=O)c(OC)cc12` [ZIMLOVISERTIB], for which the % of inhibition in [8] came out at 14%; in [9], 2.83%.

Values taken from ChEMBL document CHEMBL5465560, “Selectivity Literature for EUbOPEN Chemogenomic Library” (2024).
